Reference: patent US8188126B2, “Imidazolic compounds and use thereof as alpha-2 adrenergic receptors” (Pierre Fabre Medicament, priority 2002, dated 2012)

What was measured:
human alpha-2A receptor = biological target: T1, human alpha-2A receptor (Homo sapiens, UniProt P08913); assay: Bonds with alpha-2 adrenergic receptors ([3H]RX 821002 binding, C6 cell membranes); conditions: 2 nM [3H]RX 821002, C6 cell membranes expressing human alpha-2A receptor, 30 min at 25° C.; read-out: Affinity (pKi) Alpha-2A (converted)
T1 construct: expressed in transfected cells; host or cells: C6 cells (rat glioma, by own knowledge) continuously expressing the human receptor; membranes
T1 sequence (P08913 1-465): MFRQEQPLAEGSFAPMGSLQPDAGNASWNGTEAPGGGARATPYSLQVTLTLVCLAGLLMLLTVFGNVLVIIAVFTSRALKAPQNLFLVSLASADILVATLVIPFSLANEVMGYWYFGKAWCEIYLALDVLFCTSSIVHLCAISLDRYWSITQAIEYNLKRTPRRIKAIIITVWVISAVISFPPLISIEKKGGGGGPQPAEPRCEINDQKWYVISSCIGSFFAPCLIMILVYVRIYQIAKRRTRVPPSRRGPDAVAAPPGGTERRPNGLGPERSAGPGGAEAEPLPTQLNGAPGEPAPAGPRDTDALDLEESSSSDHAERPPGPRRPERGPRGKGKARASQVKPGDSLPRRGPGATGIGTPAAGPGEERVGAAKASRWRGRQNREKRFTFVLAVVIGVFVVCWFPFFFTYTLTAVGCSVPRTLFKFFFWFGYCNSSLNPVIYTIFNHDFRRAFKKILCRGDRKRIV
Protocol: Bonds with Alpha-2 Adrenergic Receptors
The C6 cell membranes continuously expressing the human alpha-2A receptor are prepared in Tris-HCl (pH=7.6). The bond tests are conducted with 2 nM [3H]RX 821002. The incubation medium consists of 0.4 ml of cell membranes (10 μg of proteins), 0.05 ml of radioligand and 0.05 ml of test product or phentolamine (10 μM) to determine the non-specific bond. The reaction is stopped after 30 minutes of incubation at 25° C. by adding 3 ml of Tris-HCl, 50 mM (pH=7.6), cold, followed by filtration on Whatman filters, GF/B using a Brandel. The Ki values are calculated according to the equation Ki=IC50/(1+C/Kd) where C is the concentration and Kd the dissociation constant, pKi=−log Ki. Under these conditions, the compounds according to the invention appear to have a strong affinity for human alpha-2A adrenergic subtype receptors.

[1] = biological target: T2, human alpha-2A adrenergic receptors (Homo sapiens, UniProt P08913); assay: Measurement of alpha-2 adrenergic receptor activation (GTPγS response on membrane preparations); type: biochemical; conditions: expressed with reference to (−)-adrenaline (maximum stimulation = +100), read-out: Intrinsic activity % stimulated
T2 construct: expressed in transfected cells; host or cells: membrane preparations
T2 sequence (P08913 1-465): T1 sequence (P08913 1-465)
Protocol: Measurement of Alpha-2 Adrenergic Receptor Activation
The GTPγS responses are produced on membrane preparations in 20 mM HEPES (pH=7.4) with 30 [mu]M of GDP, 100 mM of NaCl, 3 mM of MgCl2 and 0.2 mM of ascorbic acid. The maximum GTPγS stimulation is determined in the presence of […] of (−)-adrenaline and calculated with respect to the basal GTPγS response. The results are expressed with reference to adrenaline or RX 811059. Under these conditions, the compounds according to the invention are distinguished from the majority of the compounds according to the prior art in that they behave more like reverse agonists on human alpha-2A adrenergic receptors (see table above).

[2] = tested on: scopolamine-induced memory deficiency; assay: Scopolamine-induced memory deficiency test (passive avoidance); type: in vivo; conditions: rats
From the text: Scopolamine-Induced Memory Deficiency Test. Scopolamine has amnesiac properties in animals and humans. In this way, its administration to healthy humans induces certain symptoms similar to those observed in Alzheimer's disease. Therefore, the scopolamine-induced memory deficiency is used as an experimental pharmacological model of the memory disorders observed in the course of this condition. Scopolamine reduces acquisition, memorisation and recall capacities in a passive avoidance test in rats. It consists of measuring the hesitancy, after learning, shown by an animal to enter a dark compartment in which it receives a low-intensity electric shock. The administration of scopolamine does away with this hesitancy and the compounds studied inhibit the effect of scopolamine. The experimental protocol used is described in Psychopharmacol. 1992, 106, 26-30.

rats = assay: Morris water maze test (spatial memory, probe trial); type: in vivo; conditions: for Effect on spatial memory processes (in words): i.p. after training sessions of days 1 and 2; for Increase in spatial memory performance: probe trial on day 3 after two training days
From the text: Morris Water Maze—Basic Principles of the Test
In the animal test paradigm, rats are placed into a circular pool containing water and are required to find an escape platform just beneath the surface of the water and therefore invisible to the animal. The performances are dependent on the number of training days.
Morris Water Maze—Detailed Protocol
The water maze test was adapted from the original protocol of Morris (1981). The test apparatus consisted of a circular fibreglass tank (130 cm in diameter, 50 cm deep). The pool was filled to a height of 30 cm with water at room temperature (21-22° C.). The pool was divided into four virtual quadrants (Q1, Q2, Q3 and Q4) of equal surface area. A transparent escape platform made of Plexiglas (10 cm in diameter, 29 cm high) was placed in a fixed location in the tank, 1 cm below the water surface. […] Many extra-maze cues surrounded the maze and were available for the rats to use in locating the escape platform. On the training trials, the platform remained in a constant location in the centre of one quadrant (Q4) equidistant from the centre and the edge of the pool. Each rat received three trials/day for 1, 2, 3 or 4 days. Each training trial involved placing the rat into the pool facing the wall at one of the 3 quadrants Q1, Q2 and Q3. A different starting point was randomly used on each trial. The rats were allowed to swim freely until they found the escape platform. The latency to find the hidden platform was recorded and used as a measure of acquisition of the task. […] The intertrial interval was 20 sec during which the rat remained on the platform. Twenty hours after the last training trial, the platform was removed from the pool, the rats were allowed to swim for 60 sec in the pool and the time spent in the target quadrant Q4 (the quadrant in which the platform was during training) was recorded. The percent time spent in the previous training quadrant Q4 was used as an index of memory. The higher the percentage, the better the memory was considered to be (Yavich L., Sirviö J., Haapalinna A., Puumala T., Koivisto E., Heinonen E., Riekkinen P. Jr. (1996) The systemic administration of tacrine or selegeline facilitate spatial learning in aged Fisher 344 rats. J Neural Transm 103: 619-626).
Pharmacological Treatment and Statistical Analysis
Rats received two training days and were tested in a probe trial, without platform, on the third day. […] Results were expressed as the mean±standard error of the mean (SEM) of performance (latency to find the platform and percentage time spent in target quadrant) and were analysed by one-way analysis of variance, with drug treatment as the factor, followed by a 2-tailed Student t-test (GB-STAT, Friedman P. (1991) GB-STAT: computer aided statistics & graphics, Ver 3.0. Dynamic Microsystems, Inc., Silver Spring). In the probe trial, without platform, results were also compared to chance performance (25%) by a 1-sample Student t-test (GB-STAT, Friedman, 1991). Results obtained with compounds I-1 (Example 4), (−)-1-1 (Example 6), (+)-1-1 (Example 5) and 1-2 (Example 7): […]

| Structure (SMILES) | Ki (human alpha-2A receptor) [nM] | Emax [1] [%] | Scopolamine memory deficiency % aplitude of effect ([2]; dose 0.63 mg/kg i.p.) | Effect on spatial memory processes (in words) (rats) | Increase in spatial memory performance (rats; 2.54 mg/kg i.p. immediately after training sessions) [%] | Increase in spatial memory performance (rats; 0.16 mg/kg i.p. immediately after training sessions) [%] | Scopolamine memory deficiency % aplitude of effect ([2]; dose 2.5 mg/kg i.p.) | Increase in spatial memory performance (rats; 0.63 and 2.5 mg/kg i.p. immediately after training sessions) | Increase in spatial memory performance (rats; 2.5 mg/kg i.p. immediately after training sessions) [%] | Scopolamine memory deficiency % aplitude of effect ([2]; dose 0.16 mg/kg i.p.) |
| --- | --- | --- | --- | --- | --- | --- | --- | --- | --- | --- |
| C[C@@H]1[C@H]2c3ccccc3C3(CC3)[C@@]12c1c[nH]cn1 (relative stereo) [Compound 1-2, 4-(1-exo-methyl-6-spiro-1′-cyclopropane-1a,6-dihydro-1H-cyclopropa[a]inden-6a-yl)-1H-imidazole] | 7.94 | 7 | +201% | promnesic effect | 42 | – | – | – | – | – |
| c1ccc2c(c1)C1CC1(c1c[nH]cn1)C21CC1 (single isomer, unassigned; (+)) [(+)-1-1, (+)-4-(6-spiro-1′-cyclopropane-1a,6-dihydro-1H-cyclopropa[a]inden-6a-yl)-1H-imidazole] | – | – | – | promnesic effect | – | 17 | – | – | – | – |
| c1ccc2c(c1)C1CC1(c1cnc[nH]1)C21CC1 (single isomer, unassigned; (-)) [(-)-1-1, (−)-4-(6-spiro-1′-cyclopropane-1a,6-dihydro-1H-cyclopropa[a]inden-6a-yl)-1H-imidazole] | 2.51 | 37 | – | promnesic effect | – | – | +138% | up to 48% | – | – |
| c1ccc2c(c1)C1CC1(c1cnc[nH]1)C21CC1 (stereo not drawn) [Compound 1-1, 4-(6-spiro-1′-cyclopropane-1a,6-dihydro-1H-cyclopropa[a]inden-6a-yl)-1H-imidazole] | 0.316 | 14 | – | promnesic effect | – | – | +122% | – | 46 | – |
| Fc1ccc2c(c1)C1(CC1)C1(c3c[nH]cn3)CC21 (stereo not drawn) [Compound 1-5, 4-(4-fluoro-6-spiro-t-cyclopropane-1a,6-dihydro-1H-cyclopropa[a]inden-6a-yl)-1H-imidazole] | 0.316 | -10 | +241% | – | – | – | – | – | – | – |
| COc1cc2c(cc1OC)C(=O)C(CC1CCN(Cc3ccccc3)CC1)C2 (stereo not drawn) [Donepezil, reference compound] | – | – | – | – | – | – | – | – | – | +67% |
